Source: patent US5635519A, “Benzothiazole compounds which are substituted by pyridymethyl” (Eisai Co., Ltd., priority 1991, dated 1997)
Entries after “also recorded” stand apart in the source; their conditions may differ. Where a name gives a salt, the structure may show the parent alone.

Columns and labels:
LTB4 [1] = assay: Suppressing production of leukotriene B4 (LTB4) from rat peritoneal exudation cells; type: cell-based; conditions: A23187 2 μg/ml, read-out: Production suppressing function IC50, LTB4
Procedure: (§1) After 20 to 24 hours, peritoneal exudation cells were collected from the rats, washed and suspended in the Hank's buffer salt solution (HESS) at a concentration of 5×10^6 /ml. Then 100 μl/well of the obtained cell suspension was […] into a 96-well culture plate (Costar^R) containing 10 μl/well of a sample drug diluted to a given concentration. The plate was incubated at 37° C. for 5 minutes and A23187 (CALBIOCHEM®) was added thereto so as to give a final concentration of 2 μg/ml. After incubating at 37° C. for additional 10 minutes, the plate was transferred on ice and a B[…] solution was added thereto so as to give a final concentration of 100 μM. This plate was centrifuged at 15,000 rpm for 10 minutes and the supernatant was collected. Then the LTB4, TxB2 and PGE2 present in the supernatant were determined by enzyme immunoassay with the use of an EIA Kit manufactured by CAYMAN.

TxB2 [2] = assay: Suppressing production of thromboxane B2 (TxB2) from rat peritoneal exudation cells; type: cell-based; conditions: A23187 2 μg/ml, read-out: Production suppressing function IC50, TxB2
Procedure: as §1

PGE2 [3] = assay: Effect on production of prostaglandin E2 (PGE2) from rat peritoneal exudation cells; type: cell-based; conditions: A23187 2 μg/ml
Procedure: as §1

PGE2 [4] = assay: Suppressing production and liberation of PGE2 from TNB-colitis rat colon; type: in vivo; conditions: 100 mg/kg oral, 6 hours, A23187 5 μg/ml
Procedure: (§2) Functions of suppressing production and liberation of LTB4 and TxB2 from TNB (trinitrobenzenesulfonic acid)-colitis rat colon Rat TNB-colitis was induced in accordance with the method reported by Morris et al. [Gastroenterology, 96, 795-803 (1989)]. Namely, each of male F344 rats aged 9 weeks was fasted for 2 days and then etherized. A sound (1.2×80 mm, manufactured by Fuehigami Kikai-ten) was inserted into the rectum of the animal to inject 0.25 ml of a 120 mg/ml solution of TNB (a product of Tokyo Kasei K. K.) in 50% ethanol into the colon cavity. The effects of each compound on the production and liberation of LTB4 and TxB2 from the colon of the TNB-colitis rat were evaluated by using the rat 7 days after the injection of TNB. Namely, each compound (5% suspension in methylcellulose) was orally administered to the rat in a dose of 0.5 ml/100 g body weight. After 6 hours, the animal was deeply deeply etherlzed and subjected to autopsy. Thus the colon tissue was extirpated. The colon was incubated in Tyrode's solution (CALBIOCHEM containing 5 μg/ml of A23187-calcium ionophore) at 37° C. for 20 minutes in accordance with the method of […] et al. [Biochim. Biophys. Acta, 878, 184-193 (1986)]. Then LTB4, TxB2 and PGE2 thus produced and liberated into the medium were determined by radioimmunoassay (RXA).

LTB4 [5] = assay: Suppressing production and liberation of LTB4 from TNB-colitis rat colon; type: in vivo; conditions: 100 mg/kg oral, 6 hours, A23187 5 μg/ml
Procedure: as §2

TxB2 [6] = assay: Suppressing production and liberation of TxB2 from TNB-colitis rat colon; type: in vivo; conditions: 100 mg/kg oral, 6 hours, A23187 5 μg/ml
Procedure: as §2

TNB-colitis = assay: Therapeutic effects on TNB-colitis (MPO in colon); type: in vivo, rat; conditions: once a day for 11 days
Procedure: Therapeutic effects on TNB-colitis
Rat TNB-colitis was induced in accordance with the method reported by Morris et al. [Gastroenterology, 96, 795-808 (1989)]. Namely, each of male F344 rats aged 9 weeks was fasted for 2 days and then etherized. A sound (1.2×80 mm, manufactured by Fuchigami Kikai-ten) was inserted into the rectum of the animal to inject 0.25 ml of a 120 mg/ml solution of TNB (a product of Tokyo Kasei K. K.) in 50% ethanol into the colon cavity. 3 days after the injection of TNB, each compound (5% suspension in methylcellulose) was orally administered once a day for 11 days. 14 days after the injection of TNB, the animal was subjected to autopsy and the colon was extirpated. The extent of damage to the colon was evaluated by determining MPO (myeloperoxidase) present therein.
The therapeutic ratio was calculated according to the following equation:
therapeutic ratio=(5% methylcellulose group-ethanol group)-(invention
compound group-ethanol group).

rats = assay: Toxicity test, 28 days repeated administration; type: in vivo, rat; conditions: 200 mg/kg once a day for 28 days

Structure (SMILES) | IC50 (LTB4 [1]) | IC50 (TxB2 [2]) | Production suppressing function, PGE2 (in words) (PGE2 [3]; dihydrochloride) | Suppression ratio (%), PGE2 (PGE2 [4]) | Suppression ratio (%), LTB4 (LTB4 [5]) | Suppression ratio (%), TxB2 (TxB2 [6]) | Therapeutic ratio (%) (TNB-colitis; 100 mg/kg/day oral) | Production suppressing function, PGE2 (in words) (PGE2 [3]) | abnormality caused by the administration (rats) | Therapeutic ratio (%) (TNB-colitis; 10 mg/kg/day oral)
Cc1c(O)c(C)c2sc(NCc3cccnc3)nc2c1C [Example 4, 6-Hydroxy-4,5,7-trimethyl-2-(3-pyridylmethyl)aminobenzothiazole] | < 100 nM | 1950 nM | – | 30% | 93% | 72% | 31% | enhanced at 0.1-1 μM; also recorded: suppressed at 10 μM or above | – | –
CNc1nc2c(Cc3cccnc3)c(C)c(O)c(C)c2s1 [Example 10, 6-Hydroxy-5,7-dimethyl-2-methylamino-4-(3-pyridylmethyl)benzothiazole] | – | – | – | – | – | – | – | enhanced at 0.1-10 μM | no abnormality caused by the administration of the drug was observed | –
COc1cc2nc(NCc3cccnc3)sc2c(OC)c1O [Example 1, 6-Hydroxy-5,7-dimethoxy-2-(3-pyridylmethyl)aminobenzothiazole] | 90 nM | 5460 nM | – | 10% | 19% | 55% | – | enhanced at 1-10 μM; also recorded: suppressed at 100 μM | – | –
CCNc1nc2c(Cc3cccnc3)c(C)c(O)c(C)c2s1.Cl.Cl [Example 11, 2-Ethylamino-6-hydroxy-5,7-dimethyl-4-(3-pyridylmethyl)benzothiazole dihydrochloride] | < 100 nM | 100 nM | enhanced at 0.1-10 μM; also recorded: suppressed at 100 μM | 0% | 94% | 85% | 41% | – | – | –
Cc1cc(O)c(C)c2sc(NCc3cccnc3)nc12 [Example 5, 6-Hydroxy-4,7-dimethyl-2-(3-pyridylmethyl)aminobenzothiazole] | < 100 nM | 4390 nM | – | 30% | 94% | 36% | 53% | enhanced at 0.1-10 μM; also recorded: suppressed at 100 μM | – | –
C[C@]12C=CC(=O)C=C1CC[C@@H]1[C@@H]2[C@@H](O)C[C@@]2(C)[C@H]1CC[C@]2(O)C(=O)CO [prednisolone, reference compound] | – | – | – | – | – | – | – | – | – | 60%
CCCNc1nc2c(Cc3cccnc3)c(C)c(O)c(C)c2s1.Cl.Cl [Example 12, 6-Hydroxy-5,7-dimethyl-2-propylamino-4-(3-pyridylmethyl)benzothiazole dihydrochloride] | < 100 nM | 90 nM | enhanced at 0.1-10 μM; also recorded: suppressed at 100 μM | – | – | – | – | – | – | –
CCNc1nc2c(C)c(C)c(O)c(Cc3cccnc3)c2s1 [Example 17, 2-Ethylamino-6-hydroxy-4,5-dimethyl-7-(3-Pyridylmethyl)benzothiazole] | < 100 nM | 2000 nM | – | 41% | 89% | 53% | 40% | enhanced at 1 μM; also recorded: suppressed at 100 μM | – | –
CCNc1nc2c(C)c(Cc3cccnc3)c(O)c(C)c2s1 [Example 14, 2-Ethylamino-6-hydroxy-4,7-dimethyl-5-(3-pyridylmethyl)benzothiazole] | 230 nM | 650 nM | – | 8% | 83% | 67% | 32% | enhanced at 0.1-1 μM; also recorded: suppressed at 100 μM | – | –
CNc1nc2c(C(OC(C)=O)c3cccnc3)c(C)c(O)c(C)c2s1 (centres unmarked) [Example 9, {4-(6-Hydroxy-5,7-dimethyl-2-methylamino)benzothiazoyl}-(3-pyridyl)methyl acetate] | 380 nM | 730 nM | – | – | – | – | – | enhanced at 0.1-100 μM | – | –

More lines, main results first:

IC50 (LTB4 [1]) | IC50 (TxB2 [2]) | Structure (SMILES) | Production suppressing function, PGE2 (in words) (PGE2 [3]; dihydrochloride) | Suppression ratio (%), PGE2 (PGE2 [4]) | Suppression ratio (%), LTB4 (LTB4 [5]) | Suppression ratio (%), TxB2 (TxB2 [6]) | Therapeutic ratio (%) (TNB-colitis; 100 mg/kg/day oral) | Production suppressing function, PGE2 (in words) (PGE2 [3]) | abnormality caused by the administration (rats) | Therapeutic ratio (%) (TNB-colitis; 10 mg/kg/day oral)
< 100 nM | 330 nM | CCc1c(O)c(OC)c(Cc2cccnc2)c2nc(NC)sc12.Cl.Cl [Example 23, 7-Ethyl-6-hydroxy-5-methoxy-2-methylamino-4-(3-pyridylmethyl)benzothiazole dihydrochloride] | enhanced at 0.1-10 μM; also recorded: suppressed at 100 μM | – | – | – | – | – | – | –
150 nM | 180 nM | CCc1c(O)c(OC)c(Cc2cccnc2)c2nc(N)sc12 [Example 22, 2-Amino-7-ethyl-6-hydroxy-5-methoxy-4-(3-pyridylmethyl)benzothiazole dihydrochloride] | – | – | – | – | – | – | – | –
190 nM | 2 nM | Cc1c(O)c(C)c2sc(N)nc2c1Cc1cccnc1 [Example 18, 2-Amino-6-hydroxy-5,7-dimethyl-4-(3-pyridylmethyl)benzothiazole dihydrochloride] | – | – | – | – | – | – | – | –
170 nM | 110 nM | COc1c(O)c(C)c2sc(N)nc2c1Cc1cccnc1 [Example 20, 2-Amino-6-hydroxy-5-methoxy-7-methyl-4-(3-pyridylmethyl)benzothiazole dihydrochlorlde] | – | – | – | – | – | enhanced at 0.1-100 μM | – | –
250 nM | 5310 nM | Cc1c(O)c(Cc2cccnc2)c2sc(N)nc2c1C.Cl.Cl [Example 15, 2-Amino-6-hydroxy-4,5-dimethyl-7-(3-pyridylmethyl)benzothiazole dihydrochloride] | – | – | – | – | – | enhanced at 0.1-100 μM | – | –
170 nM | 1280 nM | CNc1nc2c(Cc3cccnc3)c(OC)c(O)c(C)c2s1 [Example 21, 6-Hydroxy-5-methoxy-7-methyl-2-methylamino-4-(3-pyridylmethyl)benzothiazoledihydrochloride] | – | – | – | – | – | – | – | –
